Here are results for two molecules from patent publication US7485659B2, “Anticancer compositions, and methods of making and using the same” (Faustus Forschungs CIE, Translational Cancer Research GmbH, priority 2001, dated 2009).

Structures are written as SMILES. Where only a bound is given, the exact number is not on record here.

Data set [1] has as its system human line of tumor cells CH1 (ovarian carcinoma). Kind of data set: MTT assay, continuous 96 hour exposure, CH1. Type of data set: cell-based. The procedure: (§1) The cytotoxic effects of KP 1019 and combinations of KP 1339 and indazol in different molar ratios (administered as solution in the conventional cell culture medium MEM, supplemented with 10% fetal bovine serum, without the addition of organic solvents or dissolving agents) have been comparatively investigated on the human line of tumor cells SW480 (colon carcinoma) and CH1 (ovarian carcinoma) in the MTT assay under the application of a continuous 96 hour exposure to the active substance.
(In general: Tetrazolium assays rely on reduction of a dye to a coloured formazan, in cell work by metabolically active cells.)

The test system of data set [2] is human line of tumor cells SW480 (colon carcinoma). The data set is described as follows: MTT assay, continuous 96 hour exposure, SW480. It is filed as cell-based. The procedure:
as §1

Data set [3] can be described thus: Water-solubility. Type of data set: physicochemical.
The test system of data set [4] is stem cells of human solid tumors and continuous human tumor cell lines. The data set is described as follows: In vitro antiproliferative experiments on stem cells of human solid tumors (nude mice xenografts) and continuous human tumor cell lines. Type of data set: cell-based. The note with it: stem cells of human solid tumors bred as nude mice xenografts. For orientation: In xenograft studies the graft and the host belong to different species.

As to `c1ccc2[nH]ncc2c1` [Indazol, indazol, reference compound], the “concentration at which a cytotoxic effect is exhibited” value in data set [1] and in data set [2] was more than 1000 µM each time.
Consider `[Cl][Ru-]([Cl])([Cl])[Cl].[Na+].c1ccc2[nH]ncc2c1.c1ccc2[nH]ncc2c1` [KP 1339, sodium trans-[RuCl4(ind)2]], for which the “water-solubility (in words)” value in data set [3] is “easily water-soluble”. Further, the “water-solubility relative to KP 1019” value in data set [3] (compared with KP 1019) is listed as “more than thirty times higher than KP 1019”. The “tumor inhibiting (cytotoxic) activity compared with KP 1019” value in data set [1] (MEM + 10% fetal bovine serum) and in data set [2] (MEM + 10% fetal bovine serum) was “three to four times less effective than KP 1019” in each case. Further, in data set [4], the “antiproliferative effectiveness in vitro compared with KP 1019” value is “clearly weaker antiproliferative effectiveness than KP 1019”.
